According to patent US20250171498A1, “ANTIBIOTIC COMPOUNDS, FORMULATIONS AND METHODS OF USE” (UNIVERSITEIT LEIDEN, priority 2022, published 2025):
≈ marks a conversion by molar mass, not a printed value. *1 amine or outer side, *2 acyl side, *3 side chain or, on linkers, in order; H or OH if unused. Where a SMILES comes first, the peptide text is derived from it. Bridges are numbered along the chain shown (N, C = ends). [ ]: non-standard residue; d: D form. The star is where a group is joined. X1 = CC(C)CCCCC[C@@H](N[*:1])C(=O)[*:2]; S(2-cyclohexylethyl) = C1CCC(CCS*)CC1; dPen = CC(C)(S)[C@@H](N)C(=O)O; S(3-Methylbutyl) = CC(C)CCS*; dDab = NCC[C@@H](N)C(=O)O; dDap = NC[C@@H](N)C(=O)O; Dab = NCC[C@H](N)C(=O)O; Dap = NC[C@H](N)C(=O)O

Legend:
Type in all cases: cell-based
[1] = system: renal Proximal Tubular Epithelial Cells (PTECs); assay: Toxicity on renal Proximal Tubular Epithelial Cells
Description: (§1) Compounds were prepared according to scheme 2, 3, 4, 6, 7, or 8 above, preparing different sets of compounds with different substitution patterns. All polymyxin analogues prepared were tested for their anti-bacterial activity on relevant Gram-negative strains (Table B). Polymyxin B and PMBN were taken along as references. In addition, the toxicity on renal Proximal Tubular Epithelial Cells (PTECs) was evaluated.
(§2) 3rd Generation compounds were also subjected to testing for their anti-bacterial activity on relevant Gram-negative strains (Table C). Polymyxin B and PMBN were taken along as references. In addition, the toxicity on renal Proximal Tubular Epithelial Cells (PTECs) was evaluated, see Table C.

E. Coli (ATCC 25922) = conditions: ATCC 25922
Description: as §1, §2

A. Baumanni (ATCC 19606) = conditions: ATCC 19606
Description: as §1, §2

[2] = system: K. Pneumoniae (ATCC 13883); conditions: ATCC 13883
Description: as §1, §2

[3] = system: P. Aeruginosa (ATCC 27853); conditions: ATCC 27853
Description: as §1, §2

Compound | PTEC Toxicity (relative to polymyxin B) [1] | MIC E. Coli (ATCC 25922) (E. Coli (ATCC 25922)) [µg/mL] | MIC A. Baumanni (ATCC 19606) (A. Baumanni (ATCC 19606)) [µg/mL] | MIC K. Pneumoniae (ATCC 13883) [2] [µg/mL] | MIC P. Aeruginosa (ATCC 27853) [3] [µg/mL]
CC(C)CCCCC[C@@H](N)C(=O)N[C@H](C(=O)N[C@@H](CN)C(=O)N[C@H]1CCNC(=O)[C@H]([C@@H](C)O)NC(=O)[C@H](CCN)NC(=O)[C@H](CCN)NC(=O)[C@H](CC(C)C)NC(=O)[C@@H](Cc2ccccc2)NC(=O)[C@H](CCN)NC1=O)[C@@H](C)O (H-[X1]T[Dap][Dab][Dab][dF]L[Dab][Dab]T; lactam 4-C) | 7.8 | 1 (≈ 0.894 µM) | 0.25 (≈ 0.224 µM) | 0.25 (≈ 0.224 µM) | 1 (≈ 0.894 µM)
CC(C)C[C@@H]1NC(=O)[C@@H](Cc2ccccc2)NC(=O)[C@H](CCN)NC(=O)[C@@H](NC(=O)CNC(=O)[C@@H](NC(=O)[C@H](N)CSSCCC2CCCCC2)[C@@H](C)O)CCNC(=O)[C@H]([C@@H](C)O)NC(=O)[C@H](CCN)NC(=O)[C@H](CCN)NC1=O (H-[dC](S(2-cyclohexylethyl))TG[Dab][Dab][dF]L[Dab][Dab]T; lactam 4-C) | 7.4 | 2 (≈ 1.72 µM) | 0.5 (≈ 0.429 µM) | 1 (≈ 0.858 µM) | 2 (≈ 1.72 µM)
CC(C)C[C@@H]1NC(=O)[C@@H](Cc2ccccc2)NC(=O)[C@H](CCN)NC(=O)[C@@H](NC(=O)[C@H](CN)NC(=O)[C@@H](NC(=O)[C@H](N)CSSCCC2CCCCC2)[C@@H](C)O)CCNC(=O)[C@H]([C@@H](C)O)NC(=O)[C@H](CCN)NC(=O)[C@H](CCN)NC1=O (H-[dC](S(2-cyclohexylethyl))T[Dap][Dab][Dab][dF]L[Dab][Dab]T; lactam 4-C) | 2.9 | 1 (≈ 0.837 µM) | 0.5 (≈ 0.419 µM) | 1 (≈ 0.837 µM) | 2 (≈ 1.67 µM)
CC(C)C[C@@H]1NC(=O)[C@@H](Cc2ccccc2)NC(=O)[C@H](CCN)NC(=O)[C@@H](NC(=O)[C@@H](CCN)NC(=O)[C@@H](NC(=O)[C@H](N)CSSCCC2CCCCC2)[C@@H](C)O)CCNC(=O)[C@H]([C@@H](C)O)NC(=O)[C@H](CCN)NC(=O)[C@H](CCN)NC1=O (H-[dC](S(2-cyclohexylethyl))T[dDab][Dab][Dab][dF]L[Dab][Dab]T; lactam 4-C) | 4.8 | 2 (≈ 1.65 µM) | 0.5 (≈ 0.414 µM) | 1 (≈ 0.827 µM) | 2 (≈ 1.65 µM)
CC(C)C[C@@H]1NC(=O)[C@@H](Cc2ccccc2)NC(=O)[C@H](CCN)NC(=O)[C@@H](NC(=O)[C@@H](CN)NC(=O)[C@@H](NC(=O)[C@H](N)CSSCCC2CCCCC2)[C@@H](C)O)CCNC(=O)[C@H]([C@@H](C)O)NC(=O)[C@H](CCN)NC(=O)[C@H](CCN)NC1=O (H-[dC](S(2-cyclohexylethyl))T[dDap][Dab][Dab][dF]L[Dab][Dab]T; lactam 4-C) | 5.4 | 2 (≈ 1.67 µM) | 0.5 (≈ 0.419 µM) | 1 (≈ 0.837 µM) | 2 (≈ 1.67 µM)
CC(C)C[C@@H]1NC(=O)[C@@H](Cc2ccccc2)NC(=O)[C@H](CCN)NC(=O)[C@@H](NC(=O)[C@@H](CO)NC(=O)[C@@H](NC(=O)[C@H](N)CSSCCC2CCCCC2)[C@@H](C)O)CCNC(=O)[C@H]([C@@H](C)O)NC(=O)[C@H](CCN)NC(=O)[C@H](CCN)NC1=O (H-[dC](S(2-cyclohexylethyl))T[dS][Dab][Dab][dF]L[Dab][Dab]T; lactam 4-C) | 3.3 | 2 (≈ 1.67 µM) | 0.25 (≈ 0.209 µM) | 1 (≈ 0.836 µM) | 4 (≈ 3.35 µM)
CC(C)CCSSC(C)(C)[C@@H](N)C(=O)N[C@H](C(=O)N[C@@H](CCN)C(=O)N[C@H]1CCNC(=O)[C@H]([C@@H](C)O)NC(=O)[C@H](CCN)NC(=O)[C@H](CCN)NC(=O)[C@H](CC(C)C)NC(=O)[C@@H](Cc2ccccc2)NC(=O)[C@H](CCN)NC1=O)[C@@H](C)O (H-[dPen](S(3-Methylbutyl))T[Dab][Dab][Dab][dF]L[Dab][Dab]T; lactam 4-C) |  | 2 (≈ 1.67 µM) | 4 (≈ 3.34 µM) | 2 (≈ 1.67 µM) | 2 (≈ 1.67 µM)
CC(C)CCSSC(C)(C)[C@@H](N)C(=O)N[C@H](C(=O)N[C@@H](CCN)C(=O)N[C@H]1CCNC(=O)[C@H]([C@@H](C)O)NC(=O)[C@H](CCN)NC(=O)[C@H](CCN)NC(=O)[C@H](CC(C)C)NC(=O)[C@@H](CC(C)C)NC(=O)[C@H](CCN)NC1=O)[C@@H](C)O (H-[dPen](S(3-Methylbutyl))T[Dab][Dab][Dab][dL]L[Dab][Dab]T; lactam 4-C) |  | 2 (≈ 1.72 µM) | 4 (≈ 3.44 µM) | 2 (≈ 1.72 µM) | 2 (≈ 1.72 µM)
CC(C)CCSSC(C)(C)[C@@H](N)C(=O)N[C@H](C(=O)N[C@@H](CN)C(=O)N[C@H]1CCNC(=O)[C@H]([C@@H](C)O)NC(=O)[C@H](CCN)NC(=O)[C@H](CCN)NC(=O)[C@H](CC(C)C)NC(=O)[C@@H](Cc2ccccc2)NC(=O)[C@H](CCN)NC1=O)[C@@H](C)O (H-[dPen](S(3-Methylbutyl))T[Dap][Dab][Dab][dF]L[Dab][Dab]T; lactam 4-C) |  | 2 (≈ 1.69 µM) | 1 (≈ 0.846 µM) | 1 (≈ 0.846 µM) | 2 (≈ 1.69 µM)
CC(C)CCSSC(C)(C)[C@@H](N)C(=O)N[C@H](C(=O)N[C@@H](CN)C(=O)N[C@H]1CCNC(=O)[C@H]([C@@H](C)O)NC(=O)[C@H](CCN)NC(=O)[C@H](CCN)NC(=O)[C@H](CC(C)C)NC(=O)[C@@H](CC(C)C)NC(=O)[C@H](CCN)NC1=O)[C@@H](C)O (H-[dPen](S(3-Methylbutyl))T[Dap][Dab][Dab][dL]L[Dab][Dab]T; lactam 4-C) |  | 2 (≈ 1.74 µM) | 2 (≈ 1.74 µM) | 1 (≈ 0.871 µM) | 2 (≈ 1.74 µM)
CC(C)C[C@@H]1NC(=O)[C@@H](Cc2ccccc2)NC(=O)[C@H](CCN)NC(=O)[C@@H](NC(=O)[C@H](CCN)NC(=O)[C@@H](NC(=O)[C@H](N)CSSCCC2CCCCC2)[C@@H](C)O)CCNC(=O)[C@H]([C@@H](C)O)NC(=O)[C@H](CCN)NC(=O)[C@H](CCN)NC1=O [drawing 128] (H-[dC](S(2-cyclohexylethyl))T[Dab][Dab][Dab][dF]L[Dab][Dab]T; lactam 4-C) | 1.2 | 1 (≈ 0.827 µM) | 0.5 (≈ 0.414 µM) |  | 2 (≈ 1.65 µM)
